Reference: US20260234188A1, “CHEMOKINE-BINDING PEPTIDES” (Oxford University Innovation Limited, priority 2022, published 2026)
“Also recorded” adds a separate entry of the source.

system: panel of up to 42 human chemokines; assay: Phage-display next generation sequencing screen of overlapping hexadecapeptide libraries, chemokines displayed on streptavidin beads; format: binding; conditions: log2E greater than 5, chemokines named by first part of UniProt Entry Name
Description: FIG. 1. Exemplar results from phage display screens. Phage-display libraries were constructed and analysed as described in (McLaughlin, 2013) (Tonikian, 2007). […] FIG. 1A, CC chemokines against evasin A library. FIG. 1B, CXC chemokines against the evasin B library. FIG. 1C, CXC and CX3C chemokines against the viral chemokine binding protein library. FIG. 1D, CXC chemokines against the chemokine library. […] Identified hexadecapeptides were mapped to the position in the originating protein (x-axis) and to fold enrichment (log 2 E, left y-axis). Regions of interest (ROI) were defined where the cumulative residue log 2 E, (clog 2 E:r, right y-axis) exceeds the 95% upper confidence interval of the median clog 2 E:r for the entire protein (indicated as a horizontal dotted line in each panel). Proteins are referred to by their UniProt ID.
Hexadecapeptides were identified using a phage-display next generation sequencing approach (McLaughlin, 2013). Libraries containing a total of 55662 overlapping peptides (from the tick chemokine binding proteins shown in Tables 3A and 3B, the viral chemokine binding proteins shown in Table 3C, the human chemokines shown in Table 3 E, and the human/viral chemokine receptors and other chemokine-binding proteins shown in Table 3D) were first constructed, and then screened against a panel of up to 42 human chemokines, as shown in Table 3F.

Substance	Chemokines Bound
CR24063 (TWNLVLSQFFSILATM)	CCL1, CCL22,; also recorded: CXL11, CXL14
CR5246 (FIGIKIVYSFLWGIFP)	CCL20, CCL22,; also recorded: X3CL1, CXL10,; also recorded: CXL11
CR24612 (VFLSIFYSVIFAIGLV)	CCL17, CCL18,; also recorded: CCL22, CCL25,; also recorded: CCL28, X3CL1,; also recorded: CXL10, CXL11,; also recorded: SDF1, CXL13,; also recorded: CXL14
CR26799 (WVFIFSSIQLATVVFL)	CCL18, CCL19, and CCL20, CCL22, and CCL28, X3CL1, and CXL10, CXL11, and IL8
CR26831 (WVLVIGSLVARWLLGI)	CCL17, CCL2,; also recorded: X3CL1, CXL10
CR24107 (TYIILLLTWFAGLIFS)	CCL22, CCL25,; also recorded: CXL11
CR26721 (WSLVFMAIERINYFAY)	CCL17, CCL18,; also recorded: CXL10
CR4753 (FAQLVYFIYHAVASYS)	CCL2, CXL13, and IL8
CR23379 (TNFDFMILNLSFADLF)	CCL17, CCL18,; also recorded: X3CL1
CR26592 (WKLLAEIYEYLFFFSF)	CCL19, CCL20,; also recorded: CCL22, CXL14
CR4465 (ESLFSALVTLITSLFG)	CCL18, CCL8,; also recorded: CXL10
CR5511 (FLGILGNGLVIIIATF)	CCL20, CCL22, and SDF1
CR5236 (FIFVIGMIANSVVVWV)	CCL19, CCL28,; also recorded: CXL11, SDF1,; also recorded: CXL13, IL8
CR27049 (YDLFIGIKIVYAFLWG)	CCL1, CCL18, and CCL22, CCL25, and IL8
CR5416 (FLAFLRSGYDMWLMLV)	CCL1, CCL11, and CCL17, CCL18, and CCL2, CCL20, and CXL11, CXL13, and IL8
CR25357 (VLTLKVILGFFLPFVV)	CCL1, CCL17,; also recorded: CCL18, CCL19,; also recorded: CCL28, CXL10,; also recorded: CXL11, SDF1,; also recorded: CXL13, CXL14
CR23958 (TVLLSWKVLLTMVWGA)	CCL1, CCL18,; also recorded: CCL20, CCL25,; also recorded: CCL28, CXL10,; also recorded: CXL11, SDF1
CR2524 (CFLWGIFPTVIFSYFY)	CCL22, CCL25, and CXL13, CXL14, and IL8
CR5103 (FGLLGNILVVITFAFY)	CCL19, CCL20,; also recorded: CCL22, CCL28,; also recorded: CXL10, SDF1,; also recorded: CXL14
CR23240 (TLPFWGISVAWHWVFG)	CCL17, CCL18,; also recorded: CCL20, X3CL1,; also recorded: CXL11
CR26655 (WMNILWAWFIFWWPHG)	CCL17, CCL18,; also recorded: CCL19, CCL20,; also recorded: CCL28, CXL10,; also recorded: SDF1, IL8
CR23943 (TVITFALYVGQFLAYV)	CCL2, CCL20,; also recorded: CCL22, X3CL1,; also recorded: CXL10, CXL11,; also recorded: SDF1, CXL13
CR5170 (FGVITSIVTWGLAVLA)	X3CL1, CXL10, and IL8
CR4756 (FASDFVLMWAVFFMTV)	CCL17, X3CL1,; also recorded: CXL10
CR5245 (FIGIKIVYCFLWGIFP)	CCL1, CCL15,; also recorded: CCL17, CCL18,; also recorded: CCL19, CCL20,; also recorded: CCL22, CCL25,; also recorded: CCL28, X3CL1,; also recorded: CXL10, CXL11,; also recorded: SDF1, CXL13,; also recorded: CXL14, IL8
CR23111 (TLFASDFVLMWAVFFM)	CCL15, CCL17,; also recorded: CCL20, CCL25,; also recorded: CXL14
CR24556 (VFGTVFLSIFYSVIFA)	CCL1, CCL17,; also recorded: CCL18, CCL19,; also recorded: CCL2, CCL20,; also recorded: CCL22, CCL25,; also recorded: CCL28, X3CL1,; also recorded: CXL10, CXL11,; also recorded: SDF1, CXL13,; also recorded: CXL14, IL8
CR5055 (FFYYLYVYLDIFSVVA)	CCL18, CCL2, and CCL22, CXL10, and SDF1

same assay, conditions: log2E greater than 5, chemokines named by first part of UniProt Entry Name, peptides binding complement C5a (control) excluded

Substance	Chemokines Bound
EB1728 (HEDGKKVGLCLSTEYT)	CXL10, SDF1,; also recorded: CXL14
CR7666 (GSVSLVNLLTIIGCLW)	CCL17, CCL20,; also recorded: CCL25
EEEDDYTAYAPLTCYF [HD7]	CCL1, CCL11, and CCL15, CCL17, and CCL18, CCL20, and CCL22, CCL3, and CCL4, CCL5, and CCL8
CR7823 (GVWLMSIVGTFLNVLV)	CCL11, CCL17, and CCL18, CCL2, and CCL8, CXL10, and CXL11, CXL14, and IL8
VP3426 (GSMMLSLLIAGMSLML)	CCL2, CCL5, and X3CL1, CXL10, and IL8
LEEEDDYTAYAPLTCY [HD2134]	CCL1, CCL11, and CCL15, CCL17, and CCL18, CCL22, and CCL4, CCL5, and CCL8
CR6097 (FSIFWWIFAVIIAIPH)	CXL10, SDF1,; also recorded: IL8, CCL1,; also recorded: CCL15, CCL22,; also recorded: CCL5, X3CL1,; also recorded: CXL11, CXL13
CR5776 (FMIFCYTFIVKTLVQA)	CCL1, CCL17,; also recorded: CCL19, CCL20,; also recorded: SDF1, CXL13
CR9141 (IIIWALAILASMPGLY)	CCL20, CCL28,; also recorded: CXL11, SDF1
CR6068 (FSFFYVIFSKALHDVT)	CCL1, CCL18, and CCL22, CCL28, and SDF1
CR8966 (IFWWIFAVIIAIPHFM)	IL8
CR6746 (GDFLAKLLNMIFSISL)	CCL20, CCL25,; also recorded: CCL28
EB2047 (KSDEYELFTVEYCGTN)	CXL10, CXL11,; also recorded: SDF1, CXL14
CR8126 (HIGYFGGIFFIILLTI)	CCL18, CCL22, and CCL25, CXL11, and IL8

same assay, conditions: log2E greater than 5, chemokines named by first part of UniProt entry name, C5a (control) binders excluded

Substance	Chemokines Bound
CR12439 (LGIMLFAYSMIIRTLQ)	CCL17, CCL18,; also recorded: CCL20, CCL25
CR14976 (LVTMAVWVASILSSIL)	CCL2, SDF1,; also recorded: CXL13
CR15915 (MVFSFFYVIFAKALHD)	CCL1, CCL18,; also recorded: CCL19, CCL20
CR12432 (LGIILFSYVEILRTLF)	CCL17, CCL18, and CXL10, CXL11, and IL8
CR13108 (LLFFVFSFPYHVLNLL)	CCL17, CCL18,; also recorded: CXL10, CXL11,; also recorded: CXL14, IL8
CK1301 (FIADYFETSSQCSKPS)	CCL20, CXL10,; also recorded: CXL14, IL8
CR20429 (SFYISLFAGVSFLINL)	CCL22, CCL25,; also recorded: CXL10, CXL11
CR12037 (LENMLFASFYLLDFIL)	CCL22, CXL10,; also recorded: CXL11, SDF1,; also recorded: CXL13, IL8
CK2307 (IVRNFHYLLIKDGSRV)	CCL19, CCL20,; also recorded: CCL22
CR10175 (IVTIIITFFLSWSPYH)	CCL1, CCL17,; also recorded: CCL18, CCL20,; also recorded: CCL22, CCL25,; also recorded: CCL28, X3CL1,; also recorded: CXL10, CXL11,; also recorded: CXL14
CR17298 (PGPWMNILWAWFIFWW)	CCL1, CCL17,; also recorded: CCL18, CCL19,; also recorded: CCL20, CCL28,; also recorded: CXL10, CXL14
CR15917 (MVFSFFYVIFSKALHD)	CCL19, X3CL1,; also recorded: SDF1, CXL13
CR13605 (LMFMIFAYTFIVKTLV)	CCL17, CCL18,; also recorded: CCL20, CCL22,; also recorded: CXL10
CR2158 (AVKIVFSFIWGVLPTM)	CCL18, CCL20,; also recorded: SDF1, CXL14
CK6066 (VCADPSESWVQEYVYD)	CCL19, CCL28,; also recorded: X3CL1, IL8
CR2028 (ATSWVVIFWILAALMG)	CCL17, CCL18,; also recorded: CCL19, CCL20,; also recorded: CCL28, SDF1,; also recorded: CXL13, CXL14
CR18933 (RFGVWLMSIVGTFLNM)	CCL28, CXL10, and IL8
CR20068 (SAVLTLKVILGFFLPF)	CCL17, CCL18,; also recorded: CCL20, CCL25,; also recorded: CCL28, CXL11
CR15502 (MIFTWNLVLSQFFSIL)	CCL11, CCL17,; also recorded: CCL18, CCL19,; also recorded: CCL20, CCL22,; also recorded: CCL25, CCL28,; also recorded: CCL8, X3CL1,; also recorded: CXL10, CXL11,; also recorded: SDF1, CXL13,; also recorded: CXL14, IL8
CR21349: chemokine binding peptide of Table 5A used in FIG. 5 combinations (SNVTFTGLISAFSWFM)	CCL11, CCL2,; also recorded: CCL3, CCL4,; also recorded: CCL5, CCL8
CR14849 (LVLGLLLNSLALWVFC)	CCL17, CCL19, and CCL20, CCL28, and SDF1
CR22748 (TFKILISIVWGVMPVV)	CCL17, CCL18,; also recorded: CCL19, CCL20,; also recorded: CCL22, CCL28,; also recorded: X3CL1, CXL10,; also recorded: CXL11, SDF1,; also recorded: CXL14, IL8
CK1408 (FSRCCFSFAEQEIPLR)	CCL1, CCL2,; also recorded: CCL8, CXL14
CR12240 (LFMFVLSVLGNLTVVS)	CCL17, CCL18,; also recorded: CCL19, CCL25,; also recorded: CCL28, CXL10,; also recorded: CXL11, SDF1
CR18714 (QYLKAFLAAVLGWHLA)	CCL18, CCL28,; also recorded: CXL13, CXL14
